The supplement of paper PMC10307832

Tests used:
Assay in all cases: relative viability (nuclei count vs DMSO), 5 days (fraction); higher = more cells survive
[1] = compound: C1CC1C(=O)NC2=NNC3=C2C=CC(=C3)C4=CC(=CC=C4)C(=O)NC5CC5 [XMD13-2] + CC(=O)Nc1cccc(-n2c(=O)n(C3CC3)c(=O)c3c(Nc4ccc(I)cc4F)n(C)c(=O)c(C)c32)c1 [Trametinib] (partner 0.02 µM)
Procedure, shortened: (§1)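 A single step with final 0.05% Triton X-100, 1% formaldehyde and 1 ug/ml Hoechst fixed the cells and stained nuclei 5 days after treatment. Lung cancer cell lines in 1536-well plates had been treated by pin tool the day after seeding with one drug alone or a fixed anchor-drug dose plus five library-drug doses (not always all listed) in √10 steps, and nuclei were counted on 4× images. Relative viability is the ratio of nuclei in treated wells to nuclei in vehicle wells, taken as the median of duplicate plates.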

[2] = compound: C1CC1C(=O)NC2=NNC3=C2C=CC(=C3)C4=CC(=CC=C4)C(=O)NC5CC5 [XMD13-2] + CC(C)C[C@H](NC(=O)[C@H](Cc1ccccc1)NC(=O)c1cnccn1)B(O)O [Bortezomib] (partner 0.002 µM)
Procedure, shortened: as §1

[3] = compound: Cc1ccc(C(=O)Nc2cccc(C(F)(F)F)c2)cc1Nc1cncc(C(N)=O)c1 [ALW-II-49-7] + CS(=O)(=O)N1CCN(Cc2cc3nc(-c4cccc5[nH]ncc45)nc(N4CCOCC4)c3s2)CC1 [Pictilisib] (partner 1 µM)
Procedure, shortened: as §1

[4] = compound: C1CC1C(=O)NC2=NNC3=C2C=CC(=C3)C4=CC(=CC=C4)C(=O)NC5CC5 [XMD13-2] + C[C@@H](Oc1cc(-c2cnn(C3CCNCC3)c2)cnc1N)c1c(Cl)ccc(F)c1Cl [Crizotinib] (partner 1 µM)
Procedure, shortened: as §1

Cell Line	relative viability ([1]; first compound 0.05 µM)	relative viability ([1]; first compound 0.1581 µM)	relative viability ([1]; first compound 0.5 µM)	relative viability ([1]; first compound 1.581 µM)	relative viability ([1]; first compound 5 µM)	relative viability ([2]; first compound 0.05 µM)	relative viability ([2]; first compound 0.1581 µM)	relative viability ([2]; first compound 0.5 µM)	relative viability ([2]; first compound 1.581 µM)	relative viability ([2]; first compound 5 µM)	relative viability ([3]; first compound 0.08 µM)	relative viability ([3]; first compound 0.253 µM)	relative viability ([3]; first compound 0.8 µM)	relative viability ([3]; first compound 2.53 µM)	relative viability ([3]; first compound 8 µM)	relative viability ([4]; first compound 0.05 µM)	relative viability ([4]; first compound 0.1581 µM)	relative viability ([4]; first compound 0.5 µM)	relative viability ([4]; first compound 1.581 µM)	relative viability ([4]; first compound 5 µM)
NCI-H1792	0.549	0.454	0.475	0.509	0.507	1.16	0.996	1	0.927	1.15	0.232	0.21	0.215	0.183	0.258	1.22	0.929	0.979	0.869	1.12
NCI-H1355	0.544	0.428	0.457	0.42	0.428	1.3	1.32	1.18	1.19	1.28	0.413	0.469	0.395	0.322	0.345	1.07	1.12	1.09	1.01	0.941
SK-LU-1	0.513	0.474	0.573	0.56	0.511	1.26	1.41	1.1	0.764	1.15	0.522	0.715	0.44	–	0.514	0.912	0.966	1	0.828	0.944
NCI-H2228	0.672	0.577	0.517	0.602	0.634	1.48	1.16	1	1	0.872	0.477	0.464	0.428	0.34	0.254	0.714	0.442	0.496	0.445	0.513
NCI-H2347	0.294	0.268	0.211	0.291	0.265	1.02	0.977	1.09	0.952	1.09	0.519	0.505	0.505	0.633	0.493	0.739	0.676	0.772	0.906	0.73
A-427	0.795	0.649	0.755	–	0.581	0.993	1.06	0.993	0.858	0.857	0.687	0.634	0.835	0.775	0.734	1.01	0.872	0.812	0.724	0.34
HCC-366	0.413	0.334	0.412	0.286	0.331	1.24	0.988	0.969	1.04	1.04	0.13	0.142	0.148	0.0944	0.217	0.616	0.527	0.688	0.529	0.65
HCC-78	0.842	0.71	0.834	0.833	0.792	0.464	0.551	0.349	0.553	0.516	0.192	0.188	0.203	0.268	0.192	0.373	0.356	0.34	0.35	0.309
